Experiment: xn = mol fraction of the nth substance listed
Details: 100 kPa

CC(C)CCO + OCC(O)CO
viscosity [mPa·s]
Details	x1 = 0.0692	x1 = 0.1425	x1 = 0.2195	x1 = 0.3027	x1 = 0.3954	x1 = 0.498	x1 = 0.6042	x1 = 0.7235	x1 = 0.8535
298.15 K	879.2	810.7	738.6	660.6	573.7	477.4	377.4	265	142.2
303.15 K	583.7	540.5	494.2	443.9	387.3	323.9	257.5	181.7	97.82
308.15 K	389.9	363	333.5	301.1	263.5	220.7	175.6	123.8	67.02

Cc1cccc(Cl)c1 + Nc1cccc(Cl)c1
viscosity [mPa·s]
Details	x2 = 0.0705	x2 = 0.1546	x2 = 0.2565	x2 = 0.3413	x2 = 0.4391	x2 = 0.5101	x2 = 0.6494	x2 = 0.7592	x2 = 0.8887
303.15 K	0.9978	1.301	1.665	1.967	2.313	2.563	3.05	3.431	3.876
308.15 K	0.9306	1.202	1.529	1.8	2.11	2.333	2.769	3.109	3.505
313.15 K	0.8678	1.109	1.398	1.636	1.909	2.106	2.489	2.788	3.137
318.15 K	0.8037	1.014	1.265	1.473	1.71	1.88	2.212	2.471	2.771
